Measured values from the supplement of paper PMC10307832.

Legend:
Test in all cases: relative viability (nuclei count vs DMSO), 5 days (fraction); higher = more cells survive
[1] = compound: COc1cccc2cc(-c3nc([C@H]4CC[C@H](C(=O)O)CC4)n4ncnc(N)c34)[nH]c12 [OSI-027] + C[C@]1(O)C[C@@H](c2nc(-c3ccc4ccc(-c5ccccc5)nc4c3)c3c(N)nccn32)C1 [Linsitinib] (partner 1 µM)
Summary of the method: (§1)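 Five library-drug doses in √10 steps were combined with a fixed anchor-drug dose, or a single drug was given alone, by pin tool to lung cancer cell lines in 1536-well plates the day after seeding. Nuclei were stained and counted after 5 days. Relative viability is the nuclei count in treated wells over that in vehicle wells, taken as the median of duplicate plates.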

[2] = compound: CCCS(=O)(=O)Nc1ccc(F)c(C(=O)c2c[nH]c3ncc(-c4ccc(Cl)cc4)cc23)c1F [Vemurafenib] + CC(=O)c1c(C)c2cnc(Nc3ccc(N4CCNCC4)cn3)nc2n(C2CCCC2)c1=O [Palbociclib] (partner 0.5 µM)
Summary of the method: as §1

[3] = compound: COc1cccc2cc(-c3nc([C@H]4CC[C@H](C(=O)O)CC4)n4ncnc(N)c34)[nH]c12 [OSI-027] + CS(=O)(=O)N1CCN(Cc2cc3nc(-c4cccc5[nH]ncc45)nc(N4CCOCC4)c3s2)CC1 [Pictilisib] (partner 1 µM)
Summary of the method: as §1

[4] = compound: COc1cccc2cc(-c3nc([C@H]4CC[C@H](C(=O)O)CC4)n4ncnc(N)c34)[nH]c12 [OSI-027] + CCNC(=O)c1noc(-c2cc(C(C)C)c(O)cc2O)c1-c1ccc(CN2CCOCC2)cc1 [Luminespib] (partner 0.01 µM)
Summary of the method: as §1

Row | Cell Line | relative viability ([1]; first compound 0.01 µM) | relative viability ([1]; first compound 0.03162 µM) | relative viability ([1]; first compound 0.1 µM) | relative viability ([1]; first compound 0.3162 µM) | relative viability ([1]; first compound 1 µM) | relative viability ([2]; first compound 0.03162 µM) | relative viability ([2]; first compound 0.1 µM) | relative viability ([2]; first compound 0.3162 µM) | relative viability ([2]; first compound 1 µM) | relative viability ([3]; first compound 0.01 µM) | relative viability ([3]; first compound 0.03162 µM) | relative viability ([3]; first compound 0.1 µM) | relative viability ([3]; first compound 0.3162 µM) | relative viability ([3]; first compound 1 µM) | relative viability ([4]; first compound 0.01 µM) | relative viability ([4]; first compound 0.03162 µM) | relative viability ([4]; first compound 0.1 µM) | relative viability ([4]; first compound 0.3162 µM) | relative viability ([4]; first compound 1 µM)
1 | NCI-H2009 | 1.25 | 1.2 | 1.16 | 1.03 | 0.765 | 0.175 | 0.172 | 0.161 | 0.199 | 0.885 | 0.729 | 0.7 | 0.46 | 0.405 | 1.08 | 1.06 | 1.05 | 0.924 | 0.603
2 | NCI-H2228 | 0.637 | 0.768 | 0.576 |  | 0.368 | 0.698 | 0.772 | 0.88 | 0.414 | 0.412 | 0.281 | 0.474 |  | 0.249 | 0.165 | 0.162 | 0.0954 | 0.122 | 0.111
3 | SK-MES-1 | 1.01 | 0.956 | 0.911 | 0.737 | 0.538 | 0.314 |  | 0.314 | 0.318 | 0.323 | 0.362 | 0.333 | 0.278 | 0.252 | 0.75 | 0.63 | 0.731 | 0.554 | 0.227
4 | LCLC-97TM1 | 0.19 | 0.182 | 0.139 | 0.117 | 0.123 |  | 0.22 | 0.22 | 0.207 | 0.211 | 0.208 | 0.199 | 0.116 | 0.126 | 0.846 | 0.688 | 0.776 | 0.378 | 0.211
5 | BEN | 0.923 | 0.613 | 0.627 | 0.384 | 0.271 | 0.489 | 0.492 | 0.421 | 0.491 | 0.59 | 0.472 | 0.371 | 0.328 | 0.272 | 0.327 | 0.467 | 0.307 | 0.187 | 0.221
6 | LU99A | 0.51 | 0.471 | 0.355 | 0.243 | 0.198 | 0.386 | 0.401 |  | 0.373 | 0.315 | 0.294 | 0.259 | 0.18 | 0.189 | 0.25 | 0.221 | 0.288 | 0.22 | 0.192
